Measurements as given in ChEMBL document CHEMBL1126249, “Synthesis and antiviral activity of deoxy analogs of 1-[(2-hydroxyethoxy)methyl]-6-(phenylthio)thymine (HEPT) as potent and selective anti-HIV-1 agents” (J Med Chem, 1992).

Experiments:
[1] = tested on: Human immunodeficiency virus 1; assay: Effective concentration required for 50% protection of MT-4 cells against the cytopathic effect of HIV-1; format: functional, organism-based; conditions: Human immunodeficiency virus 1, MT4
MT4 [2] = assay: Ratio of the EC50 against HIV-1 infected MT-4 cells and CC50 against mock infected MT-4 cells.; format: functional
[3] = Concentration required to reduce viability of mock-infected MT-4 cells; format: functional; conditions: Homo sapiens, MT4
MT4 [4] = assay: Concentration required to inhibit replication of HIV-2 LAV-2rod strain in MT-4 cells; format: functional, cell-based; conditions: Homo sapiens
MT4 [5] = assay: Concentration to required to reduce viability of Mock infected MT-4 cells; format: functional; conditions: Homo sapiens
[6] = Concentration required to reduce viability of Mock infected PBL (peripheral blood lymphocytes) cells.; format: functional; conditions: Homo sapiens
[7] = Concentration required to inhibit replication of HIV-1 HTLV-IIIB strain in PBL (peripheral blood lymphocytes) cells; format: functional, cell-based; conditions: Homo sapiens
MT4 [8] = assay: Cytotoxicity to required to reduce viability of Mock infected MT-4 cells of LAV-2rod strain against HIV-2 replication; format: functional; conditions: Homo sapiens

| SMILES | EC50 [1] [µM] | Selectivity index (MT4 [2]) | CC50 [3] [µM] | EC50 (MT4 [4]) [µM] | CC50 (MT4 [5]) [µM] | CC50 [6] [µM] | EC50 [7] [µM] | CC50 (MT4 [8]) [µM] |
| --- | --- | --- | --- | --- | --- | --- | --- | --- |
| CCCCCOCCOCn1c(Sc2ccccc2)c(C)c(=O)[nH]c1=O | > 55 | <1 | 55 |  |  |  |  |  |
| Cc1c(O)nc(O)nc1Sc1ccccc1 | > 250 | <1 | 250 |  |  |  |  |  |
| CCc1c(Sc2ccccc2)n(COCc2ccccc2)c(=O)[nH]c1=O | 0.0059 | 5800 |  | > 30 | 30 | 43 | 0.0015 |  |
| Cc1c(Sc2ccccc2)n(COCCOCc2ccccc2)c(=O)[nH]c1=O | > 20 | 2.3 |  |  |  |  |  |  |
| CCOCn1c(Sc2cc(Cl)cc(Cl)c2)c(CC)c(=O)[nH]c1=O | 0.0074 | 6080 | 45 |  |  |  |  |  |
| COCCOCn1c(Sc2ccccc2)c(C)c(=O)[nH]c1=O | 8.7 | 34 |  |  |  |  |  |  |
| COCn1c(Sc2ccccc2)c(C)c(=O)[nH]c1=O | 2.1 | 116 | 244 |  |  |  |  |  |
| CCOCn1c(Sc2ccccc2)c(CC)c(=O)[nH]c1=S | 0.026 | 3120 | 81 | > 50 | 50 | 35 | 0.013 |  |
| CCOCn1c(Sc2cc(Cl)cc(Cl)c2)c(CC)c(=O)[nH]c1=S | 0.013 | 3460 | 45 |  |  |  |  |  |
| CCc1c(Sc2ccccc2)n(COCCc2ccccc2)c(=O)[nH]c1=O | 0.096 | 396 | 38 |  |  |  |  |  |
| CCOCn1c(Sc2cc(C)cc(C)c2)c(CC)c(=O)[nH]c1=S | 0.0044 | >22700 | > 100 | > 100 | > 100 | 33 | 0.0022 |  |
| CCc1c(Sc2ccccc2)n(COC2CCCCC2)c(=O)[nH]c1=O | 4 | >25 | > 100 |  |  |  |  |  |
| CCOCn1c(Sc2ccccc2)c(C(C)C)c(=O)[nH]c1=S | 0.014 | >7140 | > 100 |  |  |  |  |  |
| CCOCn1c(Sc2ccccc2)c(C2CC2)c(=O)[nH]c1=S | 0.095 | 484 | 46 |  |  |  |  |  |
| CCn1c(Sc2ccccc2)c(C)c(=O)[nH]c1=O | 2.2 | 43 | 94 |  |  |  |  |  |
| CCCCn1c(Sc2ccccc2)c(C)c(=O)[nH]c1=O | 1.2 | 74 | 89 |  |  |  |  |  |
| CCc1c(Sc2ccccc2)n(COCc2ccc(Cl)cc2)c(=S)[nH]c1=O | 0.012 | >1670 | > 20 |  |  |  |  |  |
| CCOCn1c(Sc2ccccc2)c(C)c(=O)[nH]c1=O | 0.33 | 700 |  |  |  |  |  |  |
| CCOCn1c(Sc2ccccc2)c(C2CC2)c(=O)[nH]c1=O | 0.1 | 2240 | 224 |  |  |  |  |  |
| CCc1c(Sc2ccccc2)n(COCC2CCCCC2)c(=S)[nH]c1=O | 0.35 | >286 | > 100 |  |  |  |  |  |

| SMILES | EC50 [1] [µM] | Selectivity index (MT4 [2]) | CC50 [3] [µM] | EC50 (MT4 [4]) [µM] | CC50 (MT4 [5]) [µM] | CC50 [6] [µM] | EC50 [7] [µM] | CC50 (MT4 [8]) [µM] |
| --- | --- | --- | --- | --- | --- | --- | --- | --- |
| CCCOCn1c(Sc2ccccc2)c(C)c(=O)[nH]c1=O | 3.6 | 41 | 147 |  |  |  |  |  |
| CCOCn1c(Sc2cc(C)cc(C)c2)c(CC)c(=O)[nH]c1=O | 0.0054 | >18500 | > 100 | > 100 |  | 56 | 0.0018 | > 100 |
| CC(C)c1c(Sc2ccccc2)n(COCc2ccccc2)c(=O)[nH]c1=O | 0.0027 | >7410 | > 20 |  |  |  |  |  |
| Cc1c(Sc2ccccc2)n(C)c(=O)[nH]c1=O | > 150 | <1 | 150 |  |  |  |  |  |
| CCc1c(Sc2ccccc2)n(COCC2CCCCC2)c(=O)[nH]c1=O | 0.45 | 38 | 17 |  |  |  |  |  |
| CCc1c(Sc2ccccc2)n(CC(C)C)c(=S)[nH]c1=O | 0.22 | >455 | > 100 |  |  |  |  |  |
| CCc1c(Sc2ccccc2)n(COC(C)C)c(=O)[nH]c1=O | 0.34 | 421 | 143 |  |  |  |  |  |
| CC(C)c1c(Sc2ccccc2)n(COCc2ccccc2)c(=S)[nH]c1=O | 0.0068 | >2940 | > 20 |  |  |  |  |  |
| Cc1c(Sc2ccccc2)n(COCC[Si](C)(C)C)c(=O)[nH]c1=O | > 32 | <1 | 32 |  |  |  |  |  |
| CCOCn1c(Sc2ccccc2)c(C(C)C)c(=O)[nH]c1=O | 0.012 | 8830 | 106 |  |  |  |  |  |
| CCc1c(Sc2ccccc2)n(COCCc2ccccc2)c(=S)[nH]c1=O | 0.091 | >220 | > 20 |  |  |  |  |  |
| CCOCn1c(Sc2ccccc2)c(CC)c(=O)[nH]c1=O | 0.019 | 8500 |  | > 146 | 146 | 93 | 0.011 |  |
| Cc1c(Sc2ccccc2)n(COCc2ccccc2)c(=O)[nH]c1=O | 0.088 | 1080 |  |  |  |  |  |  |
| CCc1c(Sc2cc(C)cc(C)c2)n(COCc2ccccc2)c(=S)[nH]c1=O | 0.0069 | >2900 | > 20 |  |  |  |  |  |
| CCCCOCn1c(Sc2ccccc2)c(C)c(=O)[nH]c1=O | 4.7 | 18 | 83 |  |  |  |  |  |
| CCc1c(Sc2ccccc2)n(COCc2ccccc2)c(=S)[nH]c1=O | 0.0078 | >12800 | > 100 | > 100 | > 100 | 28 | 0.0037 |  |
| Cc1cn([C@H]2C[C@H](N=[N+]=[N-])[C@@H](CO)O2)c(=O)[nH]c1=O [ZIDOVUDINE] |  | 2600 |  | 0.0028 | 7.8 | 26 | 0.0014 |  |
| CCc1c(Sc2cc(C)cc(C)c2)n(COCc2ccccc2)c(=O)[nH]c1=O | 0.0032 | >6250 | > 20 |  |  |  |  |  |
| CCc1c(Sc2ccccc2)n(COC2CCCCC2)c(=S)[nH]c1=O | 1.6 | 139 | 223 |  |  |  |  |  |
| CCc1c(Sc2ccccc2)n(COCc2ccc(C)cc2)c(=S)[nH]c1=O | 0.078 | >256 | > 20 |  |  |  |  |  |
